Assay results: patent US20090311344A1, “Dosing Regimen” (priority 2008, published 2009)

Test system: hemoglobin
Test: Multiple dose study in cancer subjects receiving platinum-based chemotherapy: hemoglobin
Format: in vivo, human
Settings: Day 42
Description: A total of 7 subjects were excluded from the preliminary statistical analysis of Day 42 platelet count data and 9 subjects were excluded from the preliminary statistical analysis of Day 42 hemoglobin data due to either incorrect randomization, platelet transfusion, not administered the 2nd dose of study medication, or lost to follow-up.

Methoxypolyethyleneglycol20000-propionyl-L-Isoleucyl-L-Glutamyl-Glycyl-L-Prolyl-L-Threonyl-L-Leucyl-L-Arginyl-L-Glutaminyl-L-2-Naphthylalanyl-L-Leucyl-L-Alanyl-L-Alanyl-L-Arginyl-Sarcosyl-Ne-(methoxypolyethyleneglycol20000-propionyl-L-Isoleucyl-L-Glutamyl-Glycyl-L-Prolyl-L-Threonyl-L-Leucyl-L-Arginyl-L-Glutaminyl-L-2-Naphthylalanyl-L-Leucyl-L-Alanyl-L-Alanyl-L-Arginyl-Sarcosyl-)-Lysinamide [TPO mimetic peptide compound]
Change From Baseline in Hemoglobin, LS Mean (SE) (1.5 μg/kg): −1.63 (0.50) | Change From Baseline in Hemoglobin, Diff of LS Mean (SE) vs Placebo (2.25 μg/kg): 0.57 (0.57) | Change From Baseline in Hemoglobin, LS Mean (SE) (2.25 μg/kg): −1.60 (0.42)
